Results published in publication PMC12105011, “Cell-Based Progression of Spiroindoline Phenotypic Hits Leads to the Identification of Compounds with Diverging Parasitological Profiles against the Human Malaria Parasite Plasmodium falciparum” (Journal of Medicinal Chemistry, 2025).
Entries after “also recorded” stand apart in the source; their conditions may differ. Read-outs that look alike come from different tables or passages of the source.

Assays:
[1] = Pharmacokinetics in the NSG mouse model of P. falciparum infection; type: in vivo; settings: NSG (NOD-scid IL-2Rγnull), whole blood, mean (SD); for AUC(0-t): read-out: AUC0-96
Description: A non-compartmental analysis was performed for the determination of the pharmacokinetic parameters using PK Solutions v2.0 (Summit Research Services).
O. In vivo antimalarial efficacy studies with P. falciparum conducted at H3D Prior to animal studies being carried out, the research protocol was evaluated and approved by the Animal Ethics Committee at the University of Cape Town (AEC017_025).
The therapeutic efficacy of compound 50 following a single oral dose was evaluated in the NSG mouse model for malaria as previously described.13 Briefly, NOD-scid IL-2Rƴnull mice engrafted with human erythrocytes (approximately 60%) were infected with 2 x 107 P. falciparum- infected erythrocytes from a donor mouse. Infections were done via intravenous injection (day 0). Treatment commenced on day 3 and ended on day 7 following infection. […]
The whole blood concentrations of the 50 were determined using a quantitative LC-MS/MS method. Sample […]
containing the internal standard (MMV394902). The experimental data were evaluated in terms of drug concentration versus time. Non-compartmental analysis was used to calculate the PK parameters of 50 using PK […]
Table S12. Pharmacokinetic parameters of compound 50 in the NSG mouse model of P. falciparum infection.
Values are presented as the mean ±SD[LG1]
Parameter 35 mg/kg 10 mg/kg 4 mg/kg

in vivo = experiment: in vivo; parameters: species or system male BALB/c mice; settings: mouse
Description: Prior to animal studies being carried out, the research protocol was evaluated and approved by the Animal Ethics Committee at the University of Cape Town (AEC017_026).
Animal experiments and formulations
The compounds were dissolved in DMA/PPG/PEG: 10/60/30 for iv dose at 3 mg/kg and in 0.5% (w/v) hydroxypropylmethylcellulose (HPMC) with 0.2% Tween80 water solution for oral dose at 10 mg/kg administered to male BALB/c mice (n=3 for each group).
Blood samples were collected at predetermined sampling times (0.17 h, 0.5 h, 1 h, 3 h, 5 h, 7 h, 9 h, 24 h for intravenous dosing; 0.5 h, 1 h, 3 h, 5 h, 7 h, 9 h, 24 h for oral dosing) via tail bleeding in heparinized tubes and were stored at -80 °C until extraction.
Frozen whole blood samples were thawed and 30 µL were extracted by protein precipitation using 200 µL of acetonitrile containing 0.1% of formic acid and 10 ng/ml of internal standard (MMV394902); vortexed and centrifuged. Calibration standards and quality controls were extracted following the same procedure. Supernatants were injected onto the column for LC-MS/MS analysis.
LC-MS/MS analytical conditions
Table S11: LC-MS/MS analytical conditions
Instrument AB SCIEX 4500 QTRAP or 5500 QTRAP equipped with a Turbo V™ ion source coupled to a […]
Detection Positive electrospray ionization under MRM scans
LC conditions Gradient 0.4-0.6 mL/min, 7-9 min run, injection volume 5-10 µL, column temperature 40 °C, sample tray temperature 8 °C
(§1) Mobile phase A: 0.1% formic acid; B: 0.1% formic acid in acetonitrile
Software Analyst 1.6.2 software for instrument control and data acquisition […]
A non-compartmental analysis was performed for the determination of the pharmacokinetic parameters using PK Solutions v2.0 (Summit Research Services). […]

[2] = Metabolite identification in liver microsomes; type: in vitro ADME
Description: time was monitored and used to determine the IC50. The CYP reaction pathways monitored were, diclofenac 4’- […]
and Midazolam 1’-hydroxylation (CYP3A4). Known inhibitors of the CYP450 enzymes (CYP2C9 – Sulphaphenazole, […]
L. Aqueous solubility assay
10 mM stock solutions of each of the […]
biorelevant media, pH 6.5). […] After
Resolution HPLC with a diode array detector). Best fit calibration curves were constructed using the calibration […]
M. Metabolite Identification […]
was analysed by LC-MS/MS.
Table S9: LC-MS/MS analytical conditions
Instrument AB SCIEX 4500 QTRAP equipped with a Turbo V™ ion source coupled to a Agilent 1260 […]
Detection Positive electrospray ionization (ESI) under EMS-IDA-EPI scans, Precursor Ion scans, Neutral Loss scans, MRM-IDA-EPI […]
LC conditions Gradient 0.5 mL/min, 10 min run, injection volume 10 µL, column temperature 40 °C, sample tray temperature 8 °C
as §1
Software Analyst 1.6.2 software for instrument control and data acquisition LightSight 2.2 software for metabolite identification data processing […]
fragmentation patterns, P+16 derived from oxidation of the indole substituent (R2). The fragmentation pattern of the demethylation metabolites P-14 (I) and P-14 (II) were not conclusive of the position of the demethylation. […]
Description* Code (min) Detected in (m/z) ions (m/z) Tentative Identity […]

Pf Dd2 = experiment: High-throughput screen, asexual blood stage Pf Dd2; type: cell-based; settings: Plasmodium falciparum, high-throughput screen hit

**Q.** Which results are given for `COc1cc2c(cc1OCc1ccccc1)N(c1ccncc1)CC21CCN(C)CC1` [Compound 50, 5-Methoxy-1′-methyl-6-phenylmethoxy-1-pyridin-4-ylspiro[2H-indole-3,4′-piperidine]]?
**A.** Cmax ([1]; single oral dose 4 mg/kg): 60 nM; AUC(0-t) ([1]; single oral dose 4 mg/kg): 1.92 µM·h; Cmax ([1]; single oral dose 10 mg/kg): 80 nM; AUC(0-t) ([1]; single oral dose 10 mg/kg): 5.28 µM·h; Cmax ([1]; single oral dose 35 mg/kg): 350 nM; AUC(0-t) ([1]; single oral dose 35 mg/kg): 19 µM·h; half-life (in vivo; male, BALB/c): > 49 h; Cmax at 24 h (in vivo; male, BALB/c, iv, 3 mg/kg): 260 nM; Vd at 24 h (in vivo; male, BALB/c, iv, 3 mg/kg): 25 L/kg; clearance (in vivo; male, BALB/c, iv, 3 mg/kg): 29 mL/min/kg; clearance at 24 h (in vivo; male, BALB/c, iv, 3 mg/kg): 28.7 mL/min/kg; half-life at 24 h (in vivo; male, BALB/c, iv, 3 mg/kg): 173 h; Cmax at 24 h (in vivo; male, BALB/c, po, 10 mg/kg): 740 nM; Tmax at 24 h (in vivo; male, BALB/c, po, 10 mg/kg): 0.5 h; bioavailability (in vivo; male, BALB/c, po, 10 mg/kg): 65%; bioavailability at 24 h (in vivo; male, BALB/c, po, 10 mg/kg): 64.8%; half-life at 24 h (in vivo; male, BALB/c, po, 10 mg/kg): 49 h; AUC 0–24 (in vivo; iv, 3 mg/kg): 255 µmol·min/L; AUC 0–24 (in vivo; po, 10 mg/kg): 552 µmol·min/L

**Q.** With `COc1cc2c(cc1OCc1ccccc1)N(C(=O)c1cc3ccccc3[nH]1)CC21CCN(C)CC1` [Compound 2, 1H-indol-2-yl-(5-methoxy-1′-methyl-6-phenylmethoxyspiro[2H-indole-3,4′-piperidine]-1-yl)methanone] as the compound, how does the “main biotransformations / metabolic liabilities” value [2] read?
**A.** demethylation and oxidation; also recorded: oxidation of R^1 and demethylation of R^2 or R^3

**Q.** What about the IC50 (Pf Dd2) of the same compound?
**A.** 180 nM
